# Experimental data reported in patent publication US20200179296A1, “Accelerated Clearance of Biologic Therapeutics Using Click-Antidotes” (The Regents of the University of Colorado, a body corporate, priority 2018, published 2020).
# Assays:
# [1] = Size and zeta potential of the antidotes (Zetasizer Nano ZS), particle concentration; type: physicochemical
# Source text: Synthesis of CLIO and CLIO NWs: CLIO NWs were synthesized from native 20 kDa dextran (Sigma) whereas CLIO were synthesized from reduced T-10 (10 k Da) dextran (Pharmacosmos). Dextran, Fe (III) chloride and Fe (II) chloride were mixed in DDW and titrated with ammonia using a modified Molday precipitation method. The ratio between dextran and iron salts determined the final size of the nanoparticles. Excess dextran was removed with ultrafiltration and the particles were crosslinked with epichlorohydrin as described. Excess epichlorohydrin was removed with ultrafiltration and particles were aminated by addition of ammonium hydroxide (CLIO NWs) or diaminohexane (CLIO) overnight at 4° C. […] Size and zeta potential were determined using Zetasizer Nano ZS (Malvern Instruments Ltd, Malvern, UK). […] The amino group content was determined by reaction with Cy7-NHS. […] The amount of the reacted dye was determined by the difference in the supernatant fluorescence between the reaction tube and control tube (no particles). The number of amines per nanoparticle was determined to be ˜100,000 per CLIO and CLIO NW.
# BSA-TCO size and zeta potential are similar to those of native BSA values reported in literature. Particle concentration of BSA was determined based on Mw of 67 kDa; CLIO and CLIONW concentration was determined as described before. […]
# [2] = Elimination profile and organ distribution of NIR-labeled antidotes after i.v. injection; type: in vivo; settings: female BALB/c mice
# Source text: FIGS. 1A-1F show the antidotes used in the study. […] The nanocarriers were modified with click groups (DSPE-PEG3400 with MTZ, BSA with TCO, CLIO NW and CLIO with TCO) as described in Methods. […] Crosslinked dextran shell is not visible. Size bar=50 nm. FIGS. 1C-1F show the elimination profile of the antidotes and organ distribution (NIR images). Labels are as follows: k-kidney, s-spleen, Iv-liver, i-intestine, lu-lung, h-heart). DSPE-PEG-MTZ, BSA-TCO and CLIO NW-TCO are long circulating particles, whereas CLIO-TCO are short circulating particles. […] N=3 mice per group.
# Female BALB/c mice 6-8 weeks old were used for the experiments and bred in house. In order to determine circulation half-life of NIR-labeled antibodies and antidotes, 2 μL blood were collected at different time points through retroorbital vein or mandibular vein and were applied in duplicates on a 0.22 μm nitrocellulose membrane and scanned at 800 nm using Li-COR Odyssey. The spot integrated density of a 16-bit TIFF image was measured with ImageJ and plotted as a function of time. The fluorescence of dots at initial time point was used as 100%. […] Mean fluorescence was determined from 16-bit images using ImageJ software by subtracting the background, drawing a ROI around the organs, and using a measure function to determine mean gray value. […]
# IRDye 800CW-labeled IgG [3] = test: In vivo depletion of blood IgG by click-modified antidotes; parameters: species or system BALB/c mice
# Description: Blood IgG levels were measured at different time points, up to 72 h post injection. […] Black line is “IgG only”, green line is “IgG+antidote”. Time of IgG injection is “0” on the X-axis. The antidotes were injected at different times after IgG injection as marked by red arrows. First blood draw was at 1 h post-IgG injection (100%). The IgG only (control) group was included in every experiment. […] Two tailed t-test, n=3 mice per group.
# Female BALB/c mice 6-8 weeks old were used for the experiments and bred in house. In order to determine circulation half-life of NIR-labeled antibodies and antidotes, 2 μL blood were collected at different time points through retroorbital vein or mandibular vein and were applied in duplicates on a 0.22 μm nitrocellulose membrane and scanned at 800 nm using Li-COR Odyssey. The spot integrated density of a 16-bit TIFF image was measured with ImageJ and plotted as a function of time. The fluorescence of dots at initial time point was used as 100%. For organ distribution, mice were euthanized at 48-72 h post injection and the organs were placed in wells on a 12-well plate. Organs were scanned with Li-COR Odyssey at 800 nm. Mean fluorescence was determined from 16-bit images using ImageJ software by subtracting the background, drawing a ROI around the organs, and using a measure function to determine mean gray value.
# In order to test the depletion efficiency of the antidotes, female BALB/c mice were injected with 25 μg IRDye 800CW-labeled IgG followed by PBS (control) or the antidote, and the levels of IgG in blood (both antidote-bound and free) were measured at different times post-IgG injection (FIG. 2A). […] To test the ability of DSPE-PEG-MTZ to decrease total blood levels of IgG (both antidote bound and free), mice were injected with IRDye 800CW-IgG-TCO followed 1.5 h later with the lipid (1 mg, 1660-fold molar excess of MTZ groups). […] To test the depletion efficiency of BSA-TCO, we injected mice with 25 μg of IgG-MTZ followed by BSA-TCO at 2 h and 3 h post-IgG injection (500 μg each; ˜400 fold excess of TCO; 92-fold excess of surface-binding capacity). […] In view of the large excess of the injected lipid and BSA over IgG, it is unlikely that insufficient binding capacity is responsible for the observed difference in the depletion efficiency of these antidotes. To further investigate which factors contribute to the depletion efficiency, CLIO-TCO and CLIO NW-TCO were compared that have similar sizes but different blood half-lives (FIGS. 2E, 2F). […] It was also confirmed that CLIO-TCO specifically binds to IgG via click chemistry (FIG. 11B), which confirms that the observed decrease in IgG blood fluorescence was due to depletion.
# IRDye 800CW-labeled IgG [4] = test: Organ distribution of IgG fluorescence in control and antidote-injected groups; type: in vivo, BALB/c mice; settings: 48-72 h after antidote injection
# Source text: Graphs show mean gray value of fluorescence scans, images show colored images in 800 nm channel. Organs were scanned in […]; each organ's image corresponds to the bar graph below; representative images are shown. The signal represents both circulating IgG and organ-deposited IgG. Brightness and contrast were adjusted to the same extent in control and treated groups of the same experiment. Due to scanner settings, antibody batch and time when the experiment was terminated, the grey values show differences between experiments. 2-way ANOVA test with multiple comparisons, n=3 mice per group. Means and SD of experimental replicates are shown
# Female BALB/c mice 6-8 weeks old were used for the experiments and bred in house. […] The spot integrated density of a 16-bit TIFF image was measured with ImageJ and plotted as a function of time. The fluorescence of dots at initial time point was used as 100%. […] Mean fluorescence was determined from 16-bit images using ImageJ software by subtracting the background, drawing a ROI around the organs, and using a measure function to determine mean gray value.
# To study the depletion in the peripheral organs, the main organs were scanned 48-72 h after the antidote injection with Li-COR Odyssey NIR scanner. The mean fluorescence reflects both the deposited IgG and the circulating IgG (either free or antidote-bound). […]
substance,measurement,setting,value
BSA-TCO: bovine serum albumin conjugated with TCO-PEG4-NHS ester; macromolecule-based click antidote,Particles per mg,[1]; BSA based on Mw of 67 kDa,9 × 10^12 per mg
same,Diameter,"[1]; hydrodynamic diameter, intensity-weighted distribution",8 nm
same,Organ accumulation of the antidote,[2]; NIR organ images,significant accumulation in the lungs
same,Elimination half-life (slow phase),"[2]; i.v., blood",4 h
same,Decrease in blood level of IgG at 3 h post-IgG injection vs control,"IRDye 800CW-labeled IgG [3]; 25 μg IgG-MTZ, BSA-TCO 500 μg at 2 h and 3 h, CLIO-TCO 290 μg at 1 h",40%
same,Decrease in blood level of IgG at 24 h post IgG injection vs control,"IRDye 800CW-labeled IgG [3]; 25 μg IgG, DSPE-PEG-MTZ 1 mg, BSA-TCO 2 x 500 μg, CLIO-TCO 290 μg",53%
same,"Decrease in AUC24 h of blood IgG vs control, 3 injections of antidote","IRDye 800CW-labeled IgG [3]; BSA-TCO 500 μg at 1.5, 3, 23 h, CLIO-TCO 150 μg at 2, 3, 4 h post-IgG",38%
same,Decrease in AUC24 h of blood IgG vs control,"IRDye 800CW-labeled IgG [3]; DSPE-PEG-MTZ 1 injection 1 mg, BSA-TCO 2 injections 500 μg each, CLIO-TCO 1 injection 290 μg",41%
same,Effect on IgG fluorescence in the liver,IRDye 800CW-labeled IgG [4],increased the liver fluorescence
same,Effect on IgG fluorescence in the organs,IRDye 800CW-labeled IgG [4]; Li-COR 800 nm,did not decrease the level of fluorescence in other organs
